According to US20070060512A1, “Dipeptidyl-peptidase protected protein” (priority 2003, published 2007):
Where no end group is shown, it is not given here.

Tests used:
[1] = second N-terminal alanine replaced with serine; cited from earlier work
[2] = compared to GLP-1; cited from earlier work
Zucker rats [3] = assay: Fasting glucose of Zucker rats without glucose administration; assay type: in vivo, rat; conditions: versus untreated animals
Source text: In a further experiment, modified H-GLP-1 or H-GLP-1/mTf is used to normalize the high fasting glucose of the Zucker rats without glucose administration.

Zucker rats [4] = assay: Glucose Tolerance Test in Zucker rats; assay type: in vivo, rat; conditions: fasted Zucker rats, subcutaneous injection 30 minutes before glucose 1.5 mg/g body weight; versus untreated animals
Protocol: In this Example, modified GLP-1/mTf of the present invention is used as a therapeutic agent to treat diabetes. Modified GLP-1/mTf is administered to Zucker rats, a standard animal model for type II diabetes. Zucker rats have abnormally high blood glucose levels. […] Zucker rats are fasted overnight and then treated with H-GLP-1 or H-GLP-1 fused to transferrin (H-GLP-1/mTf). Thirty minutes after subcutaneous injection of H-GLP-1 or H-GLP-1/mTf, the animals are subjected to a Glucose Tolerance Test (GTT). For this test, fasted animals are fed glucose solution (1.5 mg/g body weight), and the blood glucose is measured at appropriate time intervals.

recombinant human DPP-IV = target: T1, recombinant human DPP-IV (Homo sapiens, UniProt P27487); assay: Dipeptidylpeptidase-IV treatment of mTf fusion proteins, cyclic AMP stimulation assay in CHO-GLP1R cells; assay type: in vitro ADME; conditions: 2 μM fusion protein, DPP-IV 1 μg/μL, room temperature 2 hours; cAMP in CHO-GLP1R cells
T1 construct: purchased R&D Systems
Protocol: Control reactions excluding DPP-IV were set-up in parallel for each fusion protein. The digests were incubated at room temperature for 2 hours, at which time the reactions were diluted 20-fold in Krebs-Ringer buffer (Biosource International) supplemented with 1 mM IBMX (Calbiochem).
Tissue culture plates (24-well) were seeded with CHO-GLP1R cells at a density of 1×10^5 cells per/well in RPMI/10% FBS medium one day prior to treatment. The next day the cells appeared uniformly distributed with an approximate confluency of 60-80 percent. One day after seeding the culture plates the cells were washed twice with Krebs-Ringer buffer (KRB) followed by incubation in KRB for 1 hr at 37° C. to lower the intracellular levels of cAMP. This was followed by incubation for 10 minutes in KRB/IBMX to inhibit intracellular enzymes that break down cAMP. Dilutions of each test compound were prepared in KRB/IBMX and triplicate wells of CHO-GLP1R cells were treated with 0.15 ml of test compound per well for exactly 50 minutes at 37° C. The treatment was halted by washing the cultures two times with ice-cold phosphate-buffered saline. […]

T1 sequence (P27487 whole entry, the tested form may be a part): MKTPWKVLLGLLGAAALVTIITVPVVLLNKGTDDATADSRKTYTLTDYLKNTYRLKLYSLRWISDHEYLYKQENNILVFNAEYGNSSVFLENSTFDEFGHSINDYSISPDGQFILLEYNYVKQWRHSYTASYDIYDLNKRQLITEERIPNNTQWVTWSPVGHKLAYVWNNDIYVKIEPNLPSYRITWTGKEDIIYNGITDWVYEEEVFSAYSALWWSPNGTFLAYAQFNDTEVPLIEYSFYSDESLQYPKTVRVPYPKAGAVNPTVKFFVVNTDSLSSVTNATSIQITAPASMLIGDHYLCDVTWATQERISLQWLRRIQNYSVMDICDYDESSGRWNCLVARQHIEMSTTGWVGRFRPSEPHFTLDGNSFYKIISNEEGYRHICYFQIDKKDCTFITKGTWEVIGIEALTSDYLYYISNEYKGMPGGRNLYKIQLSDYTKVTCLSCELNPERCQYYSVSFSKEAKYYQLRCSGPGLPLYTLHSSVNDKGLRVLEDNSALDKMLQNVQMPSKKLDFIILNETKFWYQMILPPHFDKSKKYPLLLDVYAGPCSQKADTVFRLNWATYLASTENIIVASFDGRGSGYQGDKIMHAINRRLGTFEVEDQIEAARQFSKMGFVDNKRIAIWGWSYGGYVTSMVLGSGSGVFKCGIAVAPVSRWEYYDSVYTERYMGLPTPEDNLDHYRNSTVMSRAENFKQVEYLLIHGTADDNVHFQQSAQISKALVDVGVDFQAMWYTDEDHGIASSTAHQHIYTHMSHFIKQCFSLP

Row | Compound | insulinotropic action [1] | plasma stability [2] | fasting blood glucose level (Zucker rats [3]) | normalization of blood glucose level in Glucose Tolerance Test (Zucker rats [4]) | resistance to DPP-IV (recombinant human DPP-IV)
1 | [Ser^8]GLP-1: GLP-1 analog in which the second N-terminal alanine is replaced with serine (Ritzel et al.) (HSEGTFTSDVSSYLEGQAAKEFIAWLVKGRG; Glucagon-like peptide 1(7-37); UniProt P01275 98-128, looked up, variant A8S) | did not impair the insulinotropic action | increased plasma stability as compared to GLP-1 | – | – | –
2 | CC[C@H](C)[C@H](NC(=O)[C@H](Cc1ccccc1)NC(=O)[C@H](CCC(=O)O)NC(=O)[C@H](CCCCN)NC(=O)[C@H](C)NC(=O)[C@H](C)NC(=O)[C@H](CCC(N)=O)NC(=O)CNC(=O)[C@H](CCC(=O)O)NC(=O)[C@H](CC(C)C)NC(=O)[C@H](Cc1ccc(O)cc1)NC(=O)[C@H](CO)NC(=O)[C@H](CO)NC(=O)[C@@H](NC(=O)[C@H](CC(=O)O)NC(=O)[C@H](CO)NC(=O)[C@@H](NC(=O)[C@H](Cc1ccccc1)NC(=O)[C@@H](NC(=O)CNC(=O)[C@H](CCC(=O)O)NC(=O)[C@H](C)NC(=O)[C@H](Cc1c[nH]cn1)NC(=O)[C@@H](N)Cc1c[nH]cn1)[C@@H](C)O)[C@@H](C)O)C(C)C)C(=O)N[C@@H](C)C(=O)N[C@@H](Cc1c[nH]c2ccccc12)C(=O)N[C@@H](CC(C)C)C(=O)N[C@H](C(=O)N[C@@H](CCCCN)C(=O)NCC(=O)N[C@@H](CCCNC(=N)N)C(=O)O)C(C)C [H-GLP-1] | – | – | significant drop | faster normalization of blood glucose level | –
3 | H-GLP-1/mTf: H-GLP-1(7-36) fused to modified transferrin (mTf), expressed in Saccharomyces from pREX0368 (HHAEGTFTSDVSSYLEGQAAKEFIAWLVKGR; also: fused to modified transferrin (mTf)) | – | – | significant drop | faster normalization of blood glucose level | more resistant to DPP-IV than GLP-1/mTf
